Where two headings read alike, the source gives them in different places.
Assays:
[1] = tested on: P. falciparum NF54; experiment: In vitro microplate 3H-hypoxanthine incorporation assay against P. falciparum NF54; type: cell-based, Plasmodium falciparum; details: for S.I. = IC50 (Cyt.)/IC50 (P.f. NF54): L-6 cytotoxicity over P.f. NF54; for IC50: Plasmodium falciparum, NF54 strain sensitive to chloroquine and pyrimethamine, erythrocytic stages, average of four determinations, read-out: P. Falciparum NF54 IC50
Protocol: (§1) Compounds were tested for their activities against strains of P. falciparum and T. b. rhodesiense via microplate assays. Their cytotoxicity was determined with rat skeletal myoblasts (L-6 cells). Chloroquine and melarsoprol served as standards (Table 1).
In vitro activity against erythrocytic stages of P. falciparum was determined using a ^3H-hypoxanthine incorporation assay, using the drug-sensitive NF54 strain [21] or the chloroquine- and pyrimethamine-resistant K1 strain [22]. Compounds were dissolved in DMSO at 10 mg/mL and added to parasite cultures incubated in RPMI 1640 medium without hypoxanthine, supplemented with HEPES (5.94 g/L), NaHCO3 (2.1 g/L), neomycin (100 U/mL), Albumax (5 g/L) and washed human red cells A+ at 2.5% hematocrit (0.3% parasitemia). Serial drug dilutions of 11 three-fold dilution steps covering a range from 100 to 0.002 µg/mL were prepared. The 96-well plates were incubated in a humidified atmosphere at 37 °C; 4% CO2, 3% O2, 93% N2. After 48 h, 0.05 mL of ^3H-hypoxanthine (=0.5 µCi) was added to each well of the plate. The plates were incubated for an additional 24 h under the same conditions. The plates were then harvested with a Betaplate cell harvester (Wallac, Zurich, Switzerland). The red blood cells were transferred onto a glass fiber filter and washed with distilled water. The dried filters were inserted into a plastic foil with 10 mL of scintillation fluid and counted in a Betaplate liquid scintillation counter (Wallac, Zurich, Switzerland). IC50 values were calculated from sigmoidal inhibition curves by linear regression using Microsoft Excel. Chloroquine (Sigma C6628) was used as control.

[2] = In vitro cytotoxicity with L-6 cells; type: cell-based, rat
Protocol: as §1
Assays were performed in 96-well microtiter plates, each well containing 0.1 mL of RPMI 1640 medium supplemented with 1% L-glutamine (200 mM) and 10% fetal bovine serum and 4000 L-6 cells (a primary cell line derived from rat skeletal myoblasts, ATCC CRL-1458™). Serial drug dilutions of 11 three-fold dilution steps covering a range from 100 to 0.002 μg/mL were prepared. After 70 h of incubation, the plates were inspected under an inverted microscope to assure the growth of the controls and sterile conditions. Then, 0.01 mL resazurin solution (resazurin, 12.5 mg in 100 ml double-distilled water) was added to each well and the plates incubated for another 2 h. The plates were read with a Spectramax Gemini XS microplate fluorometer (Molecular Devices Cooperation, Sunnyvale, CA, USA) using an excitation wavelength of 536 nm and an emission wavelength of 588 nm. The IC50 values were calculated by linear regression from the sigmoidal dose inhibition curves using SoftmaxPro software (Molecular Devices Cooperation, Sunnyvale, CA, USA). Podophyllotoxin (Sigma P4405) was used as control.

[3] = tested on: T. b. rhodesiense STIB 900; experiment: In vitro microplate resazurin assay against T. brucei rhodesiense; type: cell-based, Trypanosoma brucei rhodesiense; details: for S.I. = IC50 (Cyt.)/IC50 (T.b.r.): L-6 cytotoxicity over T.b.r.; for IC50: Trypanosoma brucei, read-out: T. Brucei Rhodesiense IC50
Protocol: as §1
Minimum essential medium (50 µL) supplemented with 25 mM HEPES, 1 g/L additional glucose, 1% MEM nonessential amino acids (100×), 0.2 mM 2-mercaptoethanol, 1 mM Na-pyruvate and 15% heat inactivated horse serum was added to each well of a 96-well microtiter plate. Serial drug dilutions of 11 three-fold dilution steps covering a range from 100 to 0.002 μg/mL were prepared. Then, 4 × 10^3 bloodstream forms of T. b. rhodesiense STIB 900 in 50 µL was added to each well and the plate incubated at 37 °C under a 5% CO2 atmosphere for 70 h. Ten microliters of resazurin solution (resazurin, 12.5 mg in 100 mL double-distilled water) was then added to each well and incubation continued for an additional 2–4 h. The plates were then read with a Spectramax Gemini XS microplate fluorometer (Molecular Devices Cooperation, Sunnyvale, CA, USA) using an excitation wavelength of 536 nm and an emission wavelength of 588 nm. Data were analyzed with the graphic program Softmax Pro (Molecular Devices Cooperation, Sunnyvale, CA, USA), which calculated IC50 values by linear regression and 4-parameter logistic regression from the sigmoidal dose inhibition curves. Melarsoprol (Arsobal Sanofi-Aventis, received from WHO) was used as control.

[4] = STIB 900 bloodstream forms, average of four determinations

Row | Compound | S.I. = IC50 (Cyt.)/IC50 (P.f. NF54) [1] | IC50 [1] [nM] | IC50 at 72 h ([2]; rat) [nM] | S.I. = IC50 (Cyt.)/IC50 (T.b.r.) [3] | IC50 [3, 4] [nM] | IC50 at 72 h ([2]; rat skeletal myoblasts, average of four determinations, read-out: Cytotox. L-6 Cells IC50) [nM] | IC50 [3] [nM]
1 | CC(C)(C)n1nnnc1CNCCN1CC2[C@H](c3ccccc3)CC(N3CCCCC3)(C[C@H]2c2ccccc2)C1 (racemic) [Compound 14, rac-(6R,9R)-N-[(1-tert-Butyl-1H-tetrazol-5-yl)methyl]-2-[6,9-diphenyl-1-(piperidin-1-yl)-3-azabicyclo[3.2.2]nonan-3-yl]ethan-1-amine] | 8.76 | 1940 | 17000 | 14.17 | 1200 | – | –
2 | CC(C)(C)n1nnnc1CN(CCN1CC2[C@H](c3ccccc3)CC(N3CCCCC3)(C[C@H]2c2ccccc2)C1)Cc1nnnn1C(C)(C)C (racemic) [Compound 15, rac-(6R,9R)-N,N-bis[(1-tert-Butyl-1H-tetrazol-5-yl)methyl]-2-[6,9-diphenyl-1-(piperidin-1-yl)-3-azabicyclo[3.2.2]nonan-3-yl]ethan-1-amine] | 5.62 | 742 | 4170 | 3.21 | 1300 | – | –
3 | O=S(=O)(c1ccc(Cl)cc1)N1CCC2(N3CCCC3)C[C@H](c3ccccc3)C1[C@@H](c1ccccc1)C2 (racemic) [Compound 18, rac-(7R,8R)-2-(4-Chlorobenzenesulfonyl)-7,8-diphenyl-5-(pyrrolidin-1-yl)-2-azabicyclo[3.2.2]nonane] | 10.4 | 606 | 6290 | 5.28 | 1190 | – | –
4 | Cc1ccc(S(=O)(=O)NCCN2CCC3(N4CCCCC4)C[C@H](c4ccccc4)C2[C@@H](c2ccccc2)C3)cc1 (racemic) [Compound 19, rac-(7R,8R)-4-Methyl-N-[2-(7,8-diphenyl-5-(piperidin-1-yl)-2-azabicyclo[3.2.2]nonan-2-yl)ethyl]benzenesulfonamide] | 18.7 | 577 | 10800 | 9.39 | 1150 | – | –
5 | Cc1ccc(S(=O)(=O)NCCN2CCC3(N4CCCC4)C[C@H](c4ccccc4)C2[C@@H](c2ccccc2)C3)cc1 (racemic) [Compound 20, rac-(7R,8R)-4-Methyl-N-{2-[7,8-diphenyl-5-(pyrrolidin-1-yl)-2-azabicyclo[3.2.2]nonan-2-yl]ethyl}benzenesulfonamide] | 14.7 | 487 | 7150 | 11.0 | 647 | – | –
6 | Cc1ccc(C(NCCN2CC3C(c4ccccc4)CC(N4CCCCC4)(CC3c3ccccc3)C2)c2nnnn2C(C)(C)C)cc1 (stereo in doubt) [Compound 13B, rac-N-[(1R)-(1-tert-butyl-1H-tetrazol-5-yl)(p-tolyl)methyl]-2-[(6S,9S)-6,9-diphenyl-1-(piperidin-1-yl)-3-azabicyclo[3.2.2]nonan-3-yl]ethan-1-amine] | 3.03 | 680 | 2060 | 2.06 | 1000 | – | –
7 | Nc1nc(N)nc(Nc2ccc([As]3SCC(CO)S3)cc2)n1 (stereo not drawn) [MEL, melarsoprol, reference compound] | – | – | – | 864 | – | 7780 | 9

From PMC9572860, “Antiprotozoal Activity of Azabicyclo-Nonanes Linked to Tetrazole or Sulfonamide Cores” (Molecules, 2022)
